Counter-ions that a name gives are not always drawn.
Columns and labels:
[1] = PAMPA with freshly excised porcine vitreous humor as acceptor medium; format: in vitro ADME; settings: 250 µM API in PBS; UV detection; also after precipitation and filtering
Description: (§1) For each assay 3 replicates per compounds were measured.
There has been an attempt made to use freshly excised porcine vitreous as acceptor medium in the experiments, for three APIs with sufficient absorption at a wavelength closer to the visible range (~ 300 nm) considering the cut-off of VH. […] When preparing the equilibrium solutions, one unit of API solution (250 µM, PBS) was mixed with (approximately) two units of VH. […] To gain clear spectra by removing background components, precipitation was attempted using cold acetonitrile, centrifugation, and filtration. […] The sample preparation process of VH containing samples was not further improved or investigated in this study.

[2] = Modified corneal-PAMPA, PBS as acceptor medium, UV-vis plate reader; format: in vitro ADME; settings: general trend regardless of the acceptor medium
[3] = PAMPA with HA-200 (0.1 w/v%) as acceptor medium; settings: HA (HA-200, HA-855; 0.1 w/v%) as acceptor-phase component; very low permeability and interference of HA with absorbance signal
[4] = PAMPA with HA-855 + agar (HA 0.07 w/v%; agar 0.095 w/v%) as acceptor medium; settings: for permeability decrease with HA-855 + agar compared with agar alone: cationic compounds, acceptor HA-855 + agar vs agar
Description: Finally, the solutions were stored at room temperature overnight.
as §1
In their study three types of HA-agar hydrogels were investigated with various HA and agar content from rheological and particle migration aspects. Hyaluronate as a viscoelastic polymer is an essential part of the model (as a native component of the VH itself) while agar is used to achieve elasticity and so to mimic the properties of the naturally occurring collagen fibrils. As a result of their study, they found the hydrogel containing 0.7 mg/ml (0.07 w/v%) HA (high molecular weight) and 0.95 mg/ml (0.095 w/v%) agar to be the most similar to bovine VH in the above-mentioned experiments. Since they conducted no permeability measurements with this promising hydrogel, we tested it as an acceptor medium in the PAMPA measurements. To gain further insight, experiments using only agar-containing acceptor phase were also carried out, since the standalone effect of the high molecular weight Na-HA was already investigated.

[5] = Solubility in PBS buffer (pH 7.4) for PAMPA donor solutions; format: physicochemical; settings: PBS pH 7.4; used at 100 µM instead of 250 µM nominal concentration

## COc1c(N2C[C@@H]3CCCN[C@@H]3C2)c(F)cc2c(=O)c(C(=O)O)cn(C3CC3)c12 [moxifloxacin, moxifloxacin hydrochloride]
[1]
  detection of API in porcine vitreous humor acceptor medium: no API could be detected
[2]
  permeability (qualitative): low permeability

## N=C(N)c1ccc(OCCCOc2ccc(C(=N)N)cc2)cc1 [propamidine]
[3]
  detection in the acceptor medium: could not be detected in the acceptor medium

## CCCCNc1ccc(C(=O)OCCN(C)C)cc1 [tetracaine HCl, tetracaine hydrochloride]
[4]
  permeability decrease with HA-855 + agar compared with agar alone: decrease the permeability in a greater extent than agar alone

## CCCCOc1cc(C(=O)OCCN(CC)CC)ccc1N [oxybuprocaine HCl, oxybuprocaine hydrochloride]
[4]
  permeability decrease with HA-855 + agar compared with agar alone: decrease the permeability in a greater extent than agar alone

## CCn1cc(C(=O)O)c(=O)c2cc(F)c(N3CCNCC3)nc21 [enoxacin]
[3]
  detection in the acceptor medium: could not be detected in the acceptor medium

## NC(=O)N1c2ccccc2C=Cc2ccccc21 [carbamazepine]
[5]
  solubility (qualitative): poor solubility

## CC(C)(C)NC[C@H](O)COc1nsnc1N1CCOCC1 [timolol, timolol maleate]
[4]
  permeability decrease with HA-855 + agar compared with agar alone: decrease the permeability in a greater extent than agar alone

## O=C(c1ccccc1)c1ccc2n1CCC2C(=O)O (centres unmarked) [ketorolac]
[1]
  detection of API in porcine vitreous humor acceptor medium: no API could be detected
[2]
  permeability (qualitative): low permeability

## CNC(=C[N+](=O)[O-])NCCSCc1ccc(CN(C)C)o1 [ranitidine, ranitidine hydrochloride]
[3]
  detection in the acceptor medium: could not be detected in the acceptor medium

## CC(C)NCC(O)COc1cccc2ccccc12 (centres unmarked) [propranolol HCl, propranolol hydrochloride]
[4]
  permeability decrease with HA-855 + agar compared with agar alone: decrease the permeability in a greater extent than agar alone

## O=C(O)Cc1ccccc1Nc1c(Cl)cccc1Cl [diclofenac Na]
[4]; acceptor HA-855 + agar
  direction of permeability change against corneal-PAMPA (PBS): significant increase

## CNCC[C@H](Oc1cccc2ccccc12)c1cccs1 [duloxetine HCl, duloxetine hydrochloride]
[4]
  permeability decrease with HA-855 + agar compared with agar alone: decrease the permeability in a greater extent than agar alone

## C[C@@H]1C[C@H]2[C@@H]3CCC4=CC(=O)C=C[C@]4(C)[C@@]3(F)[C@@H](O)C[C@]2(C)[C@@]1(O)C(=O)CO [dexamethasone]
[3]
  detection in the acceptor medium: could not be detected in the acceptor medium
[5]
  solubility (qualitative): poor solubility

## CCN(CC)CCCC(C)Nc1ccnc2cc(Cl)ccc12 (centres unmarked) [chloroquine diphosphate]
[4]
  permeability decrease with HA-855 + agar compared with agar alone: decrease the permeability in a greater extent than agar alone
